The nature of data set [1]: Recovery in bile after oral administration (absorption and excretion). The note with it: 20 mg/kg, rat, prepared as for urine (20 mg/10 ml/kg), disk method, read-out: Excretion Rate In Bile. The class given is in vivo, rats. The method, then: (§1) The absorbability and excretion after oral administration of the compounds, of the present invention were tested by measuring recovery in urine and in bile as follows.
A subject compound was prepared in the same manner as the recovery in urine and was orally administrated to the rats and bile was collected by using a polyethylene tube inserted into the choledochus in 24 hours. The concentration of the subject compound in the bile sample was examined in the same manner as the recovery in urine to obtain an excretion rate in bile for 24 hours.

For data set [2], the system named is E. coli NIH JC-2 (IFO 12734). Kind of data set: Antimicrobial activity, minimum inhibitory concentration (MIC), E. coli NIH JC-2. The data set is classed as cell-based. The note with it: Escherichia coli, IFO12734. The method, then: (§2) The minimum inhibitory concentration (MIC: μg/ml) of typical compounds represented by general formula (1) of the present invention is measured by the standard method of Japanese literature "Chemotherapy, Volume 29, No. 1, pp. 76-79, 1981". The results are shown in Table 1 in which compound numbers are the same as those indicated in Examples.

For another data set, the system named is P. aeruginosa (IFO 3445). Kind of data set: Antimicrobial activity, minimum inhibitory concentration (MIC), P. aeruginosa. The class given is cell-based. The note with it: Pseudomonas aeruginosa, IFO3445. As for the experimental part:
as §2

Data set [3] can be described thus: Recovery in urine after oral administration (absorption and excretion). The following applies: 20 mg/kg, rat, 20 mg/10 ml/kg in 0.5% methylcellulose, disk method, read-out: Excretion Rate In Urine. The data set is classed as in vivo, male JCL-SD rats. The method, then: as §1
To a group of three male JCL-SD rats (6 weeks old) fasted overnight, a subject compound was prepared to 20 mg/10 ml/kg with 0.5% of methylcellulose solution and was orally administrated. The sampling was carried out by collecting urine in 0 to 6 hours and 6 to 24 hours. The concentration of the subject compound in the urine was examined by a disk method by using Bacillus subtilis ATCC 33 as a testing bacillus to obtain an excretion rate in urine for 24 hours.

Data set [4] has as its system S. aureus 209p (IFO 12732). Briefly: Antimicrobial activity, minimum inhibitory concentration (MIC), S. aureus 209p. The note with it: Staphylococcus aureus. The data set is classed as cell-based. As for the experimental part: as §2

Converted amounts (≈) assume the structure as drawn.

On to `C[C@H]1CN(c2c(F)cc3c(=O)c(C(=O)O)cn4c3c2CCN4C)C[C@H]1N` (single isomer, unassigned) [Compound 30, 4-(cis (-) 3-Amino-4-methylpyrrolidin-1-yl)-5-fluoro-2,3-dihydro-1-methyl-7-oxo-1H,7H-pyrido[3,2,1-ij]cinnoline-8-carboxylic acid], for which the dose excreted at 24 h in data set [1] came to 3.8%; in data set [3], 59.7%. In addition, the results for the minimal inhibitory concentration (MIC) (in data set [2]; against P. aeruginosa (IFO 3445); in data set [4]) were 0.025 µg/mL (≈ 0.0694 µM), 0.2 µg/mL (≈ 0.555 µM) and 0.1 µg/mL (≈ 0.277 µM), respectively.

Turning to `CN1CCc2c(OCC3(N)CC3)c(F)cc3c(=O)c(C(=O)O)cn1c23` [Compound 73], the minimal inhibitory concentration (MIC) stood at 0.1 µg/mL (≈ 0.288 µM) in data set [2], 0.78 µg/mL (≈ 2.25 µM) with P. aeruginosa (IFO 3445) and 0.78 µg/mL (≈ 2.25 µM) in data set [4].

As usually defined, the MIC is the smallest concentration in the dilution series that meets the test's criterion for growth inhibition.
